# Test results: patent US11389456B2, “Compounds and methods for treating oxalate-related diseases” (OxaluRx, Inc., priority 2018, dated 2022)
# Like-named read-outs stand apart in the source and are kept apart here.
# How the values were obtained:
# [1] = Stability in human plasma; assay type: in vitro ADME; details: for half-life at 2 μM: read-out: Plasma Stability T1/2
# In short: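 Pooled human plasma (pH 7.4-8) at 37° C, test compound spiked from a 0.02 mM solution in phosphate buffer with 0.5% BSA. Samples taken at 0, 5, 15, 30, 45 and 60 min, quenched with acetonitrile containing internal standard, and remaining compound measured by LC/MS.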
# [2] = target: recombinant full-length human hydroxyacid oxidase 1 (HAO1), the equivalent of hGOX (Homo sapiens (Human), UniProt Q9UJM8); test: In-vitro human glycolate oxidase (hGOX) assay (Amplex red/HRP fluorescence); assay type: biochemical
# Sequence of recombinant full-length human hydroxyacid oxidase 1 (HAO1), the equivalent of hGOX (Q9UJM8 whole entry): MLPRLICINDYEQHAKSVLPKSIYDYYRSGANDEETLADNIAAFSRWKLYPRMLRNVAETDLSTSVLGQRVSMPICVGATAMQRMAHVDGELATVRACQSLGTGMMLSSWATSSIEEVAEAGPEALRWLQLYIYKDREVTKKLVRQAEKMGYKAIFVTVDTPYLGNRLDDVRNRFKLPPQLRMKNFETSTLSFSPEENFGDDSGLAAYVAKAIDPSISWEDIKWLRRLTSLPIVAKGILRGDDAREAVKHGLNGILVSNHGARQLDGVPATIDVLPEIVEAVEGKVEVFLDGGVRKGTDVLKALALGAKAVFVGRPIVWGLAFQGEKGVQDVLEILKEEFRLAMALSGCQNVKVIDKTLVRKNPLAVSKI
# Protocol: Biological Activity Assay: In-Vitro Human Glycolate Oxidase (hGOX) Assay
# The in-vitro glycolate oxidase assay was performed using recombinant full-length human hydroxyacid oxidase 1 (HAO1), the equivalent of hGOX. […] Purified HAO1 was dissolved in assay buffer consisting of 10 mM NaCl, 110 mM KCl, 2 mM MgCl2, 50 mM HEPES (pH 7.4) and 0.01% Triton™ X-100.
# [3] = Protein binding (plasma equilibrium dialysis); assay type: in vitro ADME; details: 5 hours at 37° C.; for fraction unbound at 5 h, 1 μM: read-out: Protein Binding Fraction Bound (converted)
# In short: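 Compound spiked into plasma at 1 μM final (0.2% DMSO) and dialysed against phosphate buffer for 5 hours at 37 °C with shaking. Donor and receiver samples, matrix-matched and acetonitrile-quenched with internal standard, quantified by LC/MS/MS alongside 0-hour plasma samples.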
# [4] = Metabolic stability in human liver microsomal preparation; assay type: in vitro ADME; details: human liver microsomes, NADPH, 37° C.; for CLint scaled at 1 μM / half-life at 1 μM: pH 7.4; for half-life at 1 μM: read-out: Metabolic Stability t1/2
# In short: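 Compound at 1.5 μM with 0.75 mg/mL human liver microsomes (concentrations before NADPH addition) in 0.1 M potassium phosphate, 1 mM EDTA, pH 7.4 was preincubated 5 min at 37 °C, then started with NADPH. Samples at 0, 5, 15, 30 and 45 min were quenched with acetonitrile/internal standard and analysed by LC/MS.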
# [5] = Solubility in phosphate buffered saline (PBS), pH 7.4; assay type: physicochemical; details: phosphate buffered saline pH 7.4, 1% DMSO, 1 hour shaking at room temperature
# In short: (§1)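 DMSO stock (10 mM) diluted into 100 mM phosphate buffer pH 7.4, or into deionized distilled water for the aqueous assay, at 1% final DMSO and shaken 1 h at room temperature. After centrifugation, supernatants quantified by LC-MS/MS against a calibration curve with internal standard.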
# [6] = target: glycolate oxidase (GOX) in HepaRG-CAR cells (Homo sapiens (Human), UniProt Q9UJM8); test: HepaRG-CAR cell-based assay for quantitation of glycolate oxidase inhibition (cellular glycolate flux, GC-MS)
# Sequence of glycolate oxidase (GOX) in HepaRG-CAR cells (Q9UJM8 whole entry): as above
# [7] = Solubility in aqueous solution (deionized, distilled water); assay type: physicochemical; details: 1% DMSO, read-out: Aqueous Solubility H2O
# In short: as §1
# [8] = phosphate buffer (PBS), aqueous buffer, kinetic from dmso stock
# [9] = HepaRG-CAR cells, 500 μM glycolate, 48 hours incubation, read-out: IC50
SMILES,half-life at 2 μM [1] [h],IC50 [2] [nM],"recovery at 5 h, 1 μM [3] [%]",CLint scaled at 1 μM [4] [mL/min/kg],half-life at 1 μM ([4]; 0-45 min) [h],"solubility at 1 h [5, 8] [µM]","IC50 [6, 9] [nM]",solubility at 1 h ([7]; kinetic from dmso stock) [µM],Plasma Stability T1/2 [1] [h],"IC50 ([2]; 12.5 nM HAO1, 85 μM glycolate, 2.5% DMSO, read-out: IC50) [nM]",Protein Binding Recovery ([3]; 1 μM) [%],Metabolic Stability Clint [4] [mL/min/kg],Metabolic Stability t1/2 ([4]; 0-45 min) [h],solubility at 1 h ([5]; read-out: Aqueous Solubility PBS) [µM],solubility at 1 h [7] [µM],"fraction unbound at 5 h, 1 μM [3]",IC50 [6] [nM]
"O=C(O)c1nn[nH]c1Oc1cccc(-c2ccc(Cl)cc2)c1 [Example I-252, 5-((4′-Chloro-[1,1′-biphenyl]-3-yl)oxy)-1H-1,2,3-triazole-4-carboxylic acid]",5.02,13,97.1,7.66,3.78,104,2000,98,,,,,,,,,
"O=C(O)c1nn[nH]c1Oc1ccc(-c2ccccn2)cc1 [Example I-261, 5-(4-(Pyridin-2-yl)phenoxy)-1H-1,2,3-triazole-4-carboxylic acid]",,,,,,,> 10000,,1.328,150,111.0,1.58,18.301,101.5,105,,
"O=C(O)c1nn[nH]c1Oc1ccc(-c2ccccc2F)cc1 [Example I-174, 5-((2′-Fluoro-[1,1′-biphenyl]-4-yl)oxy)-1H-1,2,3-triazole-4-carboxylic acid]",1.17,27,99.9,2.48,11.7,89.8,3000,70.3,,,,,,,,,
"O=C(O)c1nn[nH]c1Oc1cccc(-c2ccncc2)c1 [Example I-260, 5-(3-(Pyridin-4-yl)phenoxy)-1H-1,2,3-triazole-4-carboxylic acid]",1.79,21,114,2.81,10.3,100,2500,94.4,,,,,,,,0.047,
"O=C(O)c1nn[nH]c1Oc1cccc(-c2cccc(Cl)c2)c1 [Example I-253, 5-((3′-Chloro-[1,1′-biphenyl]-3-yl)oxy)-1H-1,2,3-triazole-4-carboxylic acid]",1.78,9,112,5.51,5.26,102,2500,91.7,,,,,,,,,
"O=C(O)c1nn[nH]c1Oc1cncc(-c2cccnc2)c1 [Example I-264, 5-([3,3′-Bipyridin]-5-yloxy)-1H-1,2,3-triazole-4-carboxylic acid]",1.72,380,123,0.17,173,108,> 10000,105,,,,,,,,,
"O=C(O)c1nn[nH]c1Oc1ccc(-c2ccc(Br)cc2)cc1 [Example I-154, 5-((4′-Bromo-[1,1′-biphenyl]-4-yl)oxy)-1H-1,2,3-triazole-4-carboxylic acid]",1.85,5,98.5,< 0.15,> 83.3,93.7,> 10000,29.1,,,,,,,,,
"O=C(O)c1nn[nH]c1Oc1ccc(-c2ccccc2)nc1 [Example I-263, 5-((6-Phenylpyridin-3-yl)oxy)-1H-1,2,3-triazole-4-carboxylic acid]",1.51,141,111,2.48,11.7,106,> 10000,99,,,,,,,,0.014,
"N#Cc1cccc(-c2ccc(Oc3[nH]nnc3C(=O)O)cc2)c1 [Example I-256, 5-((3′-Cyano-[1,1′-biphenyl]-4-yl)oxy)-1H-1,2,3-triazole-4-carboxylic acid]",8.52,22,113,0.4,71.6,90.5,,86.9,,,,,,,,,10000
"O=C(O)c1nn[nH]c1Oc1cccc(-c2cccnc2)c1 [Example I-259, 5-(3-(Pyridin-3-yl)phenoxy)-1H-1,2,3-triazole-4-carboxylic acid]",1.33,18,105,0.45,64.3,93.1,2000,96.1,,,,,,,,0.221,
"O=C(O)c1nn[nH]c1Oc1cccc(-c2ccc(Cl)c(Cl)c2)c1 [Example I-255, 5-((3′,4′-Dichloro-[1,1′-biphenyl]-3-yl)oxy)-1H-1,2,3-triazole-4-carboxylic acid]",3.35,6,102,< 0.15,> 83.3,97.1,5000,81,,,,,,,,,
"Cc1ccc(-c2cccc(Oc3[nH]nnc3C(=O)O)c2)cc1 [Example I-251, 5-((4′-Methyl-[1,1′-biphenyl]-3-yl)oxy)-1H-1,2,3-triazole-4-carboxylic acid]",4.87,13,98.2,17.7,1.64,108,2500,101,,,,,,,,,
"O=C(O)c1nn[nH]c1Oc1cccc(-c2ccccc2F)c1 [Example I-254, 5-((2′-Fluoro-[1,1′-biphenyl]-3-yl)oxy)-1H-1,2,3-triazole-4-carboxylic acid]",2.51,17,94.4,3.82,7.58,114,2500,106,,,,,,,,,
"Cc1cc(Oc2[nH]nnc2C(=O)O)ccc1Br [Example I-037, 5-(4-Bromo-3-methylphenoxy)-1H-1,2,3-triazole-4-carboxylic acid]",0.786,34,105,< 0.15,> 83.3,96.8,400,96.1,,,,,,,,,
"O=C(O)c1nn[nH]c1Oc1ccc2ccccc2c1 [Example I-058, 5-(Naphthalen-2-yloxy)-1H-1,2,3-triazole-4-carboxylic acid]",0.852,50,101,2.1,13.8,90.8,2000,81.5,,,,,,,,,
